Reference: patent US20250354999A1, “BIOMARKERS OF LYSOSOMAL STORAGE DISEASE” (Genzyme Corporation, priority 2022, published 2025)
Entries after “also recorded” stand apart in the source; their conditions may differ.

Tests used:
Assay type in all cases: in vivo, human
[1] = system: lyso-GL3; assay: lyso-GL3 level in plasma of Fabry patients on venglustat (ESI-LC-MS/MS)
Method: (§1) Glycosphingolipids (lyso-GL1, GL3, and lyso-GL3) were measured by ESI-LC-MS/MS according to the method described in Murugesan et al., Am J Hematol. (2016) 91(11):1082-1089. In brief, 20 μL aliquots of plasma were added to 1 mL of chloroform:methanol (2:3) in an Eppendorf tube, mixed and then centrifuged. Supernatant was removed and extracted with chloroform (220 μL) and water (520 μL) by mixing and centrifugation. The upper phase was re-extracted with chloroform and added to the lower phase. The combined sample was dried, resuspended in 100 μL methanol:water (9:1) and injected into an LC-MS/MS system for tandem mass spectroscopic analysis. Separation of glycosphingolipids and other matrix components was achieved using UPLC under gradient conditions with two mobile phases: 0.1% formic acid in water; and 0.1% formic acid in acetonitrile. Mass spectrometry (MS) was performed in select ion monitoring mode, typically using the parent (M+H^+) ion transition (e.g. m/z 462.5>282.4 for lyso-GL1). Assays were calibrated using known glycosphingolipid standards (dimethylpsychosine, 13C6-labelled lyso-GL3 (GelbChem), and C17-GL3 (Matreya LLC, cat no. 1523) as internal standards for lyso-GL1, lyso-GL3, and GL3 respectively).
(§2) The ACT/LTS samples were taken from the Sanofi-Venglustat Phase II trial. This trial consisted only of male patients. […]

[2] = system: GL3; assay: GL3 level in plasma of Fabry patients on venglustat (ESI-LC-MS/MS); conditions: Fabry disease patients, venglustat clinical trial over time
Method: as §1, §2

[3] = system: CD63; assay: CD63 level in plasma of Fabry patients on treatment (Olink profiling; Sanofi-Venglustat Phase II ACT/LTS trial)
Method: CD63 was measured by Olink® profiling, as described below, using the Olink® Target96 Neuro-Exploratory panel (Olink Proteomics AB, Uppsala, Sweden) according to the manufacturer's instructions.
Protein detection can be performed using Olink® (Olink Proteomics AB, Uppsala, Sweden) profiling in accordance with the manufacturer's recommended protocols (for exemplary methods, see, e.g., Assarsson et al., PLoS ONE (2014) 9(4):e95192; and Jabbari et al., Journal of Neurology, Neurosurgery & Psychiatry (2019) 90:768-773). The Proximity Extension Assay (PEA) technology used for the Olink® protocol has been well described (Assarsson et al., 2014, supra), and enables 92 analytes per panel to be analysed simultaneously, using 1 μL of each sample. In brief, pairs of oligonucleotide-labelled antibody probes bind to their targeted protein, and if the two probes are brought in close proximity the oligonucleotides will hybridize in a pair-wise manner. The addition of a DNA polymerase leads to a proximity-dependent DNA polymerization event, generating a unique PCR target sequence. The resulting DNA sequence can subsequently be detected and quantified using a microfluidic real-time PCR instrument (Biomark HD, Fluidigm). Data is then quality controlled and normalized using an internal extension control and an inter-plate control, to adjust for intra- and inter-run variation. The final assay read-out is presented in Normalized Protein expression (NPX) values, which is an arbitrary unit on a log 2-scale where a high value corresponds to a higher protein expression. All assay validation data (e.g., detection limits, intra- and inter-assay precision data, etc.), experimental protocols, and data processing are available on the manufacturer's website (www.olink.com).
The ACT/LTS samples were taken from the Sanofi-Venglustat Phase II trial. This trial consisted only of male patients. The Sanofi-Venglustat Phase II trial was a longitudinal study, and patient plasma was collected at 6 set intervals: Baseline (0 weeks), 12 weeks, 26 weeks, 52 weeks, 104.2 weeks, and 156.4 weeks. There are missing timepoints for some patients. During this trial, all patients were treated with venglustat (a substrate reduction therapy-SRT).
Cohort 1 is a collection of plasma samples provided by Dr. Gavin Oudit from the University of Alberta. Briefly, these plasma samples were from a mix of male and female patients with ages ranging from 25 to 68. They were non-longitudinal samples (e.g. 1 sample per patient), and the plasma samples were a mix of treated Fabry patients (enzyme replacement therapy-ERT), untreated Fabry patients, and healthy control subjects.
Cohort 2 is a collection of plasma samples provided by Dr. Michael Mauer from the University of Minnesota. […]

[4] = system: CD63; assay: CD63 level in CSF of type 3 Gaucher disease patients on treatment (Olink Explore; LEAP trial); conditions: GD3 patients, baseline, 26 weeks and 52 weeks on combination treatment of venglustat and imiglucerase
Method: For the measurement of protein levels in CSF, the following protocol was employed: Biomarker expression in CSF was measured using four Olink® Explore panels (Cardiometabolic, Inflammation, Neurology, and Oncology), as described, e.g., by Wik et al. (“Proximity Extension Assay in Combination with NextGeneration Sequencing for High-throughput Proteome-wide Analysis, 2021, Mol Cell Proteomics 20, 100168). Briefly, 10 μL of CSF samples and Olink controls were placed into a 384-well Sample Source Plate and then diluted 1:10, 1:100, 1:1000 and 1:100,000 in 384-well Sample Diluent Plates using Mosquito and Dragonfly liquid handlers (both from SPT Labtech). For immunoreaction, these diluted samples were mixed with the Olink® probes (DNA oligo-conjugated antibodies) in 384-well Incubation Plates using the Mosquito handler and incubated at 4° C. for 16-24 hours. The following day, reagent mixtures for the first PCR amplification step (PCR1 step) were added to the immunoreaction mixtures using the Dragonfly handler, and PCR1 reaction for the pre-amplification step was conducted using ProFlex PCR System (Applied Biosciences). […] The four libraries were analyzed by Next Generation Sequencing using NovaSeq 6000 (Illumina). […]

[5] = Fabry disease patients vs healthy controls, during the trial period

For `CC(C)(NC(=O)O[C@@H]1CN2CCC1CC2)c1csc(-c2ccc(F)cc2)n1` [venglustat, (3S)-1-azabicyclo[2.2.2]octan-3-yl N-{2-[2-(4-fluorophenyl)-1,3-thiazol-4-yl]propan-2-yl}carbamate], the “return of lyso-GL3 to control levels” value [1, 5] was “do not return to control levels during the trial period”, the “response of lyso-GL3 to treatment” value ([1]; Fabry disease patients, venglustat clinical trial over time) was “show a response to treatment” and the “response of GL3 to treatment” value [2] was “show a response to treatment”. The “return of CD63 to control levels” value [3, 5] was “do not return to control levels during the trial period”, the “response of CD63 to treatment” value ([3]; Fabry disease patients, baseline to 156.4 weeks on treatment) was “decrease over a period of 30 months towards a healthy level; also recorded: show a response to treatment” and the “time at which CD63 response to treatment is observed” value ([3]; Fabry disease patients, venglustat treatment) was 12 weeks. For the same compound, the “first significant decrease in CD63 (estimated marginal mean, log 2)” value ([3]; Fabry disease patients, venglustat treatment, baseline to 156 weeks) was at most 26 week and the “change of CD63 levels in CSF on treatment” value [4] was “consistently led to a decrease in CD63 levels”.
